According to US12378294B2, “IL-4 derived peptides for use in the treatment of obesity” (SERODUS APS, priority 2022, dated 2025):
Several values for one entry are separate records, joined by “and”; a condition that tells them apart may be missing. Equal values may be shown once. Where no end group is shown, it is not given here.

Key:
macrophages = details: cited from earlier work
type II IL-4R = molecular target: T1, type II IL-4R (Homo sapiens, UniProt P24394); details: cited from earlier work
T1 sequence (P24394 26-825): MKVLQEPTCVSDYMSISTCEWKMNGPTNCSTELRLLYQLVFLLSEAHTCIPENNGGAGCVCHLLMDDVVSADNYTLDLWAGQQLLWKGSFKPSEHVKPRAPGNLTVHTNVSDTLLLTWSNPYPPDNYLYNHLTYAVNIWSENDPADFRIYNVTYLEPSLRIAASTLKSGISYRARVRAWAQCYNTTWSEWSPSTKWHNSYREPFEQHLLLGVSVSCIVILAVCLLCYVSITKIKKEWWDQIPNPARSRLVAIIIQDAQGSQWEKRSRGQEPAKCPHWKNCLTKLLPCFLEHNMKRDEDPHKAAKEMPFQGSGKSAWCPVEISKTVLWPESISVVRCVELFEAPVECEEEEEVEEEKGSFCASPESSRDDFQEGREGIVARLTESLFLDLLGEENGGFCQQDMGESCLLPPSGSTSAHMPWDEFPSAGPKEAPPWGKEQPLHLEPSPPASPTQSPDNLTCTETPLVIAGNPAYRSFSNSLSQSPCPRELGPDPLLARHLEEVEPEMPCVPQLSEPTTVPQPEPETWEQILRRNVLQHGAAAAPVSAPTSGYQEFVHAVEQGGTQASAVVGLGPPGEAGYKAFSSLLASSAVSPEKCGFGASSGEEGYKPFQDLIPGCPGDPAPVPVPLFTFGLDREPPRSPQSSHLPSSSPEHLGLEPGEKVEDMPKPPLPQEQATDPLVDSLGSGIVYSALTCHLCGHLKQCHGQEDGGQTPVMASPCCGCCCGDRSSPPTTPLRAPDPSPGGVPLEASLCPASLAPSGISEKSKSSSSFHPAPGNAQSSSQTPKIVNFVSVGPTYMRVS

IL-4 receptors = molecular target: T2, IL-4 receptors (Homo sapiens, UniProt P24394); details: cited from earlier work
T2 sequence (P24394 26-825): T1 sequence (P24394 26-825)

type I IL-4R = molecular target: T3, type I IL-4R (Homo sapiens, UniProt P24394); details: cited from earlier work
T3 sequence (P24394 26-825): T1 sequence (P24394 26-825)

[1] = test system: female mice (BKS.Cg-Dock7m+/+Leptin db/db BLKS); assay: Effect of an IL-4 derived peptide on body weight in db/db mice; type: in vivo; details: for Effect on weight / weight gain compared to vehicle: treatment group vs vehicle/placebo group, 77 days s.c. once daily
Protocol: 30 female mice (BKS.Cg-Dock7m+/+Leptin db/db BLKS, 5 weeks of age) were transferred to the Gubra Research animal unit in Denmark. Throughout the habituation and study period, the animals were housed in a light-, temperature-, and -humidity-controlled room with free access to food and water. All animal experiments were conducted in accordance with Gubra bioethical guidelines, which are fully compliant with internationally accepted principles for the care and use of laboratory animals. The body weight of the animals was recorded at the start of the study (baseline), on day 13, day 27, day 34, day 43, day 60 and day 77 (termination of study).
Compound A was prepared using standard solid phase peptide synthesis (SPPS) procedures. Compound A was provided by Phlogo ApS, Copenhagen, Denmark (10 mg/ml miliQ water diluted to the dose formulations). Vehicle was miliQ:PBS 1:5.
The mice were randomized into a vehicle group (n=15) and a 10 mg/kg Compound A (n=15). The compound as well as the vehicle was administered subcutaneously once daily. On day 27, the dose was lowered to 5 mg/kg Compound A (n=15), and on day 43, the dose was lowered to 2.5 mg/kg Compound A (n=15).

Substance | Macrophage activation (macrophages) | Activity on type II IL-4R (type II IL-4R) | Binding to the IL-4 receptors (IL-4 receptors) | Activity on type I IL-4R (type I IL-4R) | Δ Weight ([1]; individual animals 1-15 of treatment group, day 77 minus baseline, s.c. once daily, 10 then 5 then 2.5 mg/kg) | Weight at day 77 ([1]; individual animals 1-15 of treatment group, s.c. once daily, 10 mg/kg, lowered to 5 mg/kg on day 27 and 2.5 mg/kg on day 43, day 77) | Δ Weight (g), mean ([1]; mean of treatment group (n=15), baseline to day 77, s.c. once daily, 10 then 5 then 2.5 mg/kg, placebo mean 5.76) [g] | Weight at day 77 (g), mean ([1]; mean of treatment group (n=15), s.c. once daily, 10 then 5 then 2.5 mg/kg, placebo mean 50.64) [g] | Weight increase during the study period ([1]; treatment group average, baseline to day 77, placebo 12.8%) [%] | Effect on weight / weight gain compared to vehicle [1] | Effect on weight / weight gain compared to vehicle ([1]; listed as compound A)
AQFHRHKQLIRFLKRA [SEQ ID NO:1, 16-residue IL-4 derived peptide, variant of AA71-AA86 of IL-4] | inhibiting macrophage activation | antagonist | capable of binding to the IL-4 receptors | high affinity partial agonist | – | – | – | – | – | – | –
Compound A: dimer of SEQ ID NO:1 (AQFHRHKQLIRFLKRA) connected through a linker (lysine-beta-alanine) at the C-terminals (also: dimer of two chains joined at the C-termini through a Lys-βAla linker) | – | – | – | – | 1.80 g and -1.60 g and 7.30 g and 4.40 g and 4.50 g and 2.70 g and -1.90 g and 8.00 g and 4.20 g and 11.20 g and 11.40 g and 3.20 g and -1.30 g and 0.90 g and 1.40 g | 54.30 g (2×) and 47.30 g and 48.40 g and 52.50 g and 59.10 g and 47.60 g and 37.50 g and 57.30 g and 51.80 g and 58.10 g and 59.40 g and 52.40 g and 49.20 g and 49.40 g | 3.51 | 48.66 | 7.8 | significantly decreased the weight | decreased the weight gain
